Data reported in patent US20240101548A1, “HYDROXAMATE COMPOUND, PREPARATION METHOD THEREFOR AND APPLICATION THEREOF” (SHENZHEN CHIPSCREEN BIOSCIENCES CO., LTD., priority 2020, published 2024).
Read-outs that look alike come from different tables or passages of the source.

Columns and labels:
Assay type in all cases: cell-based, human
[1] = tested on: EPO-induced JAK2 signal pathway; assay: EPO-induced proliferation of UT-7 cells (JAK2 signal); conditions: UT-7 cell proliferation, EPO 10 ng/mL, 72 hours, read-out: Inhibition activity IC50 on EPO-induced JAK2 signal pathway
Method in brief: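 […] was derived from inhibition rates across doses, scaled between wells lacking compound and cytokine (0) and EPO without compound (100), using alamarBlue fluorescence at Ex530/Em590. Compound (final 0-10000 nM) and 10 ng/mL EPO were given to UT-7 cells at 15000 per well for 72 h at 37° C.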

[2] = tested on: IL-2-induced JAK1/JAK3 signal pathway; assay: IL-2-induced proliferation of KHYG-1 cells (JAK1/JAK3 signal); conditions: KHYG-1 cell proliferation, IL-2 10 ng/mL, 72 hours, read-out: Inhibition activity IC50 on IL-2-induced JAK1/JAK3 signal pathway
Method in brief: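 Controls were wells lacking both compound and cytokine (0%) and compound-free IL-2 wells (100%). C50 was calculated from inhibition rates across doses.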

[3] = tested on: IL-10-induced JAK1/TYK2 signal pathway; assay: IL-10-induced JAK1/TYK2 signal pathway STAT3-Luc reporter gene assay in U2OS cells; conditions: U2OS cells, STAT3-Luc reporter, IL-10 10 ng/mL, read-out: Half inhibition dose (IC50) on IL-10-induced JAK1/TYK2 signal pathway
Description: Cytokine IL-10 is one of the main members of IL-10 family. The receptor that cytokine IL-10 binds to consists of two kinds of subunits, i.e., IL-10R1 and IL-10R2, which respectively couple with JAK1 and TYK2. After the coupling of IL-10 with its receptor, interaction of phosphorylation occurs between JAK1 and TYK2 to form STAT3 docking site for phosphorylation of STAT3. The phosphorylated STAT3 enters the nucleus and drives the transcription and expression of downstream genes.
The reporter gene plasmid STAT3-Luc Reporter used in the present invention has luciferase expression sequence as the reporter gene, upstream of which is a promoter sequence containing multiple STAT3 binding sites. When phosphorylated STAT3 induced by IL-10 signal pathway binds to the promoter of STAT3-Luc Reporter plasmid, luciferase is transcribed and expressed. The excitation fluorescence catalyzed by Luciferase can be detected after the addition of […] substrate, whose intensity can quantitively reflect the activation level of the signal pathway.
Human osteosarcoma cell line U20S was commercially available from American Type Culture Collection (ATCC), and relevant culture conditions referred to those from ATCC. It was known that such cell line could express IL-10R2, JAK1, TYK2 and STAT3, therefore, by exogenous expression of IL-10R1 gene, a complete IL-10 signal pathway could be established. The human IL-10R1 subunit overexpression plasmid pCMV3-IL10RA-EGFP was constructed by Shanghai Genechem Co., Ltd., and capable of simultaneously expressing enhanced green fluorescent protein. In the subsequent detection and calculation, the signal of green fluorescent protein in the tested sample was used as a reference for transfection efficiency calibration of the luciferase reporter gene signal. Reporter plasmid STAT3-Luc Reporter was commercially available from Ji Man Biotech (Shanghai) Co., Ltd.
X-tremeGENE 9 DNA Transfection Reagent (Roche) was used for the transfection of plasmid DNA into cells, Cell Culture Lysis 5× reagent (Promega) and Luciferase Assay System (Promega) were used in cell lysate preparation and enzyme-substrate reaction for luciferase reporter gene detection. Green fluorescent protein signal and luciferase reporter gene signal were both detected by Tecan Spark™ 10M multimode microplate reader. The inhibition rate of the tested compound on the IL-10 signal pathway reporter gene signal and the half inhibition dose IC50 were both calculated using Microsoft Excel and GraphPad Prism 7.00 software.
U2OS cell line was inoculated in 96-well plate with flat bottom at 5000 cells per well, and cultured overnight at 37° C. and 5% CO2 followed by plasmid transfection. Following the instructions and using X-tremeGENE 9 DNA Transfection Reagent, pCMV3-IL10RA-EGFP and STAT3-Luc Reporter plasmids were co-transfected into the inoculated U2OS cells. After 24 hours of transfection, the tested compound was added respectively for a final concentration of 0, 0.1, 0.3, 1, 3, 10, 30, 100, or 300 nM. After 6 hours of culture at 37° C. and 5% CO2, IL-10 cytokine (Human IL-10 PEPROTECH 200-10-10UG) was added to each well for a final concentration of 10 ng/mL, the well in which neither compound nor cytokine was added was designated as 0% control well. The culture was continued for 24 hours before testing.
Cell lysate was prepared by using Cell Culture Lysis reagent and transferred to 96-well plate with half-well clear bottom. The green fluorescent protein signal value was detected at Ex485/Em520 using Tecan microplate reader, and recorded. After adding to each well the luciferase substrate from Luciferase Assay System, the signal value of luciferase-substrate reaction was immediately detected at 560 nm using Tecan microplate reader, and recorded.
Using Microsoft Excel software, the signal value of luciferase-substrate reaction of each well was calculated and calibrated based on the signal value of green fluorescent protein of each well. […]

SMILES | IC50 ([3]; Homo sapiens, U2OS) [µM] | IC50 [3] [µM] | IC50 ([1]; Homo sapiens, UT7) [µM] | IC50 ([2]; Homo sapiens) [µM] | IC50 ([3]; Homo sapiens) [µM] | IC50 [1] [µM] | IC50 [2] [µM]
CONC(=O)c1cnc(Nc2cccc(F)n2)cc1Nc1ccc(Cl)cc1N(C)S(C)(=O)=O [Example 47, 4-((4-chloro-2-(N-methylmethanesulfonamido)phenyl)amino)-6-((6-fluoropyridin-2-yl)amino)-N-methoxy nicotinamide] | 0.00134 |  | > 10 | > 10 |  |  | 
CONC(=O)c1cnc(Nc2ccc(F)cn2)cc1Nc1ccc(C)nc1N(C)S(C)(=O)=O [Example 60] | 0.00115 |  | > 10 | > 10 |  |  | 
CONC(=O)c1cnc(Nc2cccc(F)n2)cc1Nc1ccc(OCC2CC2)cc1N(C)S(C)(=O)=O [Example 62, 4-((4-(cyclopropylmethoxy)-2-(N-methylmethanesulfonamido)phenyl)amino)-6-((6-fluoropyridin-2-yl)amino)-N-methoxy nicotinamide] | 0.00129 |  | > 10 | > 10 |  |  | 
[2H]C([2H])([2H])ONC(=O)c1cnc(Nc2cccc(F)n2)cc1Nc1ccc(C2CC2)cc1N(C)S(C)(=O)=O [Example 68, 4-((4-cyclopropyl-2-(N-methylmethanesulfonamido)phenyl)amino)-6-((6-fluoropyridin-2-yl)amino)-N-(methoxy-d3)nicotinamide] | 0.00131 |  | > 10 | > 10 |  |  | 
CONC(=O)c1cnc(NC(=O)C2CC2)cc1Nc1cccc(-c2ncn(C)n2)c1OC [Example 69, 6-(cyclopropylcarboxamido)-N-methoxy-4-((2-methoxy-3-(1-methyl-1H-1,2,4-triazol-3-yl)phenyl)amino)-nicotinamide] |  |  | > 10 | > 10 | 0.00278 |  | 
CONC(=O)c1cnc(NC(=O)C2CC2)cc1Nc1ccc(F)cc1N(C)S(C)(=O)=O [Example 70, 6-(cyclopropylcarboxamido)-4-((4-fluoro-2-(N-methylmethanesulfonamido)phenyl)amino)-N-methoxy nicotinamide] |  |  | > 10 | > 10 | 0.00244 |  | 
CONC(=O)c1cnc(Nc2ccc(F)cn2)cc1Nc1ccc(Cl)cc1N(C)S(C)(=O)=O [Example 80, 4-((4-chloro-2-(N-methylmethanesulfonamido)phenyl)amino)-6-((5-fluoropyridin-2-yl)amino)-N-methoxy nicotinamide] |  | 0.000961 |  |  |  | > 10 | > 10
CONC(=O)c1cnc(NC(=O)C2CC2)cc1Nc1ccc(C)cc1N(C)S(C)(=O)=O [Example 81, 6-(cyclopropylcarboxamido)-N-methoxy-4-((4-methyl-2-(N-methylmethanesulfonamido)phenyl)amino)nicotinamide] |  |  | > 10 | > 10 | 0.0015 |  | 
CCONC(=O)c1cnc(NC(=O)C2CC2)cc1Nc1ccccc1N(C)S(C)(=O)=O [Example 90, 6-(cyclopropylcarboxamido)-N-ethoxy-4-((2-(N-methylmethanesulfonamido)phenyl)amino)nicotinamide] | 0.0014 |  | > 10 | > 10 |  |  | 
CP(C)(=O)c1ccccc1Nc1cc(NC(=O)C2CC2)ncc1C(N)=O [Example 93, 6-(cyclopropylcarboxamido)-4-((2-(dimethylphosphoryl)phenyl)amino)nicotinamide] | 0.279 |  | > 10 | > 10 |  |  | 

More lines, main results first:

IC50 ([3]; Homo sapiens, U2OS) [µM] | IC50 [3] [µM] | SMILES | IC50 ([1]; Homo sapiens, UT7) [µM] | IC50 ([2]; Homo sapiens) [µM] | IC50 ([3]; Homo sapiens) [µM] | IC50 [1] [µM] | IC50 [2] [µM]
0.00104 |  | CONC(=O)c1cnc(Nc2cc(C)c(F)cn2)cc1Nc1ccccc1N(C)S(C)(=O)=O [Example 44, 6-((5-fluoro-4-methylpyridin-2-yl)amino)-N-methoxy-4-((2-(N-methylmethanesulfonamido)phenyl)amino)nicotinamide] | > 10 | > 10 |  |  | 
0.000855 |  | CONC(=O)c1cnc(Nc2cc(C)nc(C)n2)cc1Nc1ccccc1N(C)S(C)(=O)=O [Example 45] | > 10 | > 10 |  |  | 
0.00109 |  | CONC(=O)c1cnc(Nc2ccc(F)cn2)cc1Nc1ccc(Cl)cc1N(C)S(C)(=O)=O [Example 46, 4-((4-chloro-2-(N-methylmethanesulfonamido)phenyl)amino)-6-((5-fluoropyridin-2-yl)amino)-N-methoxy nicotinamide] | > 10 | > 10 |  |  | 
0.0017 |  | CONC(=O)c1cnc(Nc2ccc(F)cn2)cc1Nc1ccc(OCC2CC2)cc1N(C)S(C)(=O)=O [Example 61, 4-((4-(cyclopropylmethoxy)-2-(N-methylmethanesulfonamido)phenyl)amino)-6-((5-fluoropyridin-2-yl)amino)-N-methoxy nicotinamide] | > 10 | > 10 |  |  | 
0.000865 |  | CONC(=O)c1cnc(NC(=O)C2CC2)cc1Nc1ccc(OCC2CC2)cc1N(C)S(C)(=O)=O [Example 63, 6-(cyclopropylcarboxamido)-4-((4-(cyclopropylmethoxy)-2-(N-methylmethanesulfonamido)phenyl)amino)-N-methoxy nicotinamide] | > 10 | > 10 |  |  | 
0.000889 |  | CONC(=O)c1cnc(NC(=O)C2CC2)cc1Nc1ccc(Cl)cc1N(C)S(C)(=O)=O [Example 79, 4-((4-chloro-2-(N-methylmethanesulfonamido)phenyl)amino)-6-(cyclopropylcarboxamido)-N-methoxy nicotinamide] | > 10 | > 10 |  |  | 
0.00228 |  | CCONC(=O)c1cnc(Nc2ccc(F)cn2)cc1Nc1ccc(C2CC2)cc1N(C)S(C)(=O)=O [Example 95, 4-((4-cyclopropyl-2-(N-methylmethanesulfonamido)phenyl)amino)-N-ethoxy-6-((5-fluoropyridin-2-yl)amino)nicotinamide] | > 10 | > 10 |  |  | 
0.00133 |  | CCONC(=O)c1cnc(NC(=O)C2CC2)cc1Nc1cc(F)c(C2CC2)cc1N(C)S(C)(=O)=O [Example 97, 6-(cyclopropylcarboxamido)-4-((4-cyclopropyl-5-fluoro-2-(N-methylmethanesulfonamido)phenyl)amino)-N-ethoxy nicotinamide] | > 10 | > 10 |  |  | 
0.017 |  | CNC(=O)c1cnc(Nc2ccc(F)cn2)cc1Nc1ccccc1N(C)S(C)(=O)=O [Example 100, 6-((5-fluoropyridin-2-yl)amino)-N-methyl-4-((2-(N-methylmethanesulfonamido)phenyl)amino)nicotinamide] | > 10 | > 10 |  |  | 
